Patent US5424309A, “N-substituted acylamino acid compounds, process for their production and their use” (Banyu Pharmaceutical Co., Ltd., priority 1988, dated 1995)

biological target: T1, human plasma renin (Homo sapiens, UniProt P00797); experiment: Renin inhibiting activities (human plasma, angiotensin I by radio immunoassay); type: biochemical; conditions: pH7.4, 37° C., one hour, read-out: IC50 (50 % inhibition concentrations), renin inhibiting activity
T1 construct: from tissue; host or cells: human plasma
T1 sequence (P00797 67-406): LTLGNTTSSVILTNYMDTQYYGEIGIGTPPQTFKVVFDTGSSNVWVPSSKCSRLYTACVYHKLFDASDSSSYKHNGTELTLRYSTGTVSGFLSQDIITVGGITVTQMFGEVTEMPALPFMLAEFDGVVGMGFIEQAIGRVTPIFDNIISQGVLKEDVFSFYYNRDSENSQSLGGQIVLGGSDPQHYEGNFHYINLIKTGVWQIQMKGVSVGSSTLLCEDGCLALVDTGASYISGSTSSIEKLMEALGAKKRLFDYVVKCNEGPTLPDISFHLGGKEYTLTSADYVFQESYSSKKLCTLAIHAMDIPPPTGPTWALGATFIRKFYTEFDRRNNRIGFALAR
Method: To 156 μl of a 0.2M sodium phosphate buffer solution (pH7.4), 40 μl of a solution mixture of 34 mM 8-hydroxyquinoline and 100 mM disodium ethylenediamine tetraacetate, 4 μl of dimethyl sulfoxide or a dimethyl sulfoxide solution of test compound and 200 μl of human plasma were added and reacted at 37° C. for one hour. Then, pepstatin was added thereto to terminate the reaction, and the amount of the resulting angiotension I was measured by radio immunoassay whereby the inhibiting activity was determined.

| SMILES | IC50 [nM] |
| --- | --- |
| CCCC[C@H](NC(=O)[C@H](Cc1cccc2ccccc12)CS(=O)(=O)CC(O)COC(C)=O)C(=O)N[C@@H](CC1CCCCC1)[C@@H](O)[C@@H](O)CN1CCOCC1 (stereo partly shown) [Example 11] | 6.3 |
| CCCC[C@H](NC(=O)[C@H](Cc1cccc2ccccc12)CS(=O)(=O)CC(COC(C)=O)OC)C(=O)N[C@@H](CC1CCCCC1)[C@@H](O)[C@@H](O)CN1CCOCC1 (mixture of isomers) [Example 29, (2S,3R,4S)-4-{L-N-[(2S)-3-[(2RS)-3-acetoxy-2-methoxypropyl]sulfonyl-2-(1-naphthylmethyl)propionyl]norleucyl}amino-5-cyclohexyl-1-morpholino-2,3-pentanediol] | 0.76 |
| CCCC[C@H](NC(=O)[C@H](Cc1cccc2ccccc12)CS(=O)(=O)C1C(OC(C)=O)CCC1OC(C)=O)C(=O)N[C@@H](CC1CCCCC1)[C@@H](O)[C@@H](O)CN1CCOCC1 (stereo partly drawn) [Example 37, (2S,3R,4S)-4-{L-N-[(2S)-3-(2,5-diacetoxycyclopentyl)sulfonyl-2-(1-naphthylmethyl)propionyl]norleucyl}amino-5-cyclohexyl-1-morpholino-2,3-pentanediol] | 2.9 |
| CCCC[C@H](NC(=O)[C@H](Cc1cccc2ccccc12)CS(=O)(=O)CC(COC(=O)CC)OC(=O)CC)C(=O)N[C@@H](CC1CCCCC1)[C@@H](O)[C@@H](O)CN1CCOCC1 (mixture of isomers) [Example 8, (2S,3R,4S)-4-{L-N-[(2S)-3-[(2RS)-2,3-dipropionyloxypropyl]sulfonyl,-2-(1-naphthylmethyl)propionyl]norleucyl}amino-5-cyclohexyl-1-morpholino-2,3-pentanediol] | 3.3 |
| CCCC[C@H](NC(=O)[C@@H](CSc1ccc(OC(C)=O)cc1)Cc1cccc2ccccc12)C(=O)N[C@@H](CC1CCCCC1)[C@@H](O)[C@@H](O)CN1CCOCC1 [Example 18, (2S,3R,4S)-4-{L-N-[(2S)-3-(4-acetoxyphenylthio)-2-(1-naphthylmethyl)propionyl]norleucyl}amino-5-cyclohexyl-1-morpholino-2,3-pentanediol] | 9.2 |
| CCCC[C@H](NC(=O)[C@H](Cc1cccc2ccccc12)CS(=O)(=O)CC(COC(C)=O)(OCC)OCC)C(=O)N[C@@H](CC1CCCCC1)[C@@H](O)[C@@H](O)CN1CCOCC1 [Example 48, (2S,3R,4S)-4-{L-N-[(2S)-3-(3-acetoxy-2,2-diethoxypropyl)sulfonyl-2-(1-naphthylmethyl)propionyl]norleucyl}amino-5-cyclohexyl-1-morpholino-2,3-pentanediol] | 3.9 |
| CC(=O)OCC(CS(=O)(=O)C[C@@H](Cc1cccc2ccccc12)C(=O)N[C@@H](Cc1c[nH]cn1)C(=O)N[C@@H](CC1CCCCC1)[C@@H](O)[C@@H](O)CN1CCOCC1)OC(C)=O (stereo partly shown) [Example 23] | 4.8 |
| CCCC[C@H](NC(=O)[C@H](Cc1cccc2ccccc12)CS(=O)(=O)CC(COC(C)=O)OC)C(=O)N[C@@H](CC1CCCCC1)[C@@H](O)[C@@H](O)CN1CCOCC1 (single isomer, unassigned) [Example 39] | 1.3 |
| CCCC[C@H](NC(=O)[C@H](Cc1ccccc1)CS(=O)(=O)CC(COC(C)=O)OC(C)=O)C(=O)N[C@@H](CC1CCCCC1)[C@@H](O)[C@@H](O)CN1CCOCC1 (mixture of isomers) [Example 15, (2S,3R,4S)-4-{L-N-[(2S)-3-[(2RS)-2,3-diacetoxypropyl]sulfonyl-2-benzylpropionyl]norleucyl}amino-5-cyclohexyl-1-morpholino-2,3-pentanediol] | 7.3 |
| COC(COC(C)=O)CS(=O)(=O)C[C@@H](Cc1cccc2ccccc12)C(=O)N[C@@H](Cc1cscn1)C(=O)N[C@@H](CC1CCCCC1)[C@@H](O)[C@@H](O)CN1CCOCC1 (stereo partly drawn) [Example 44, (2S,3R,4S)-4-{L,N-[(2S)-3-[(2RS)-3-acetoxy-2-methoxypropyl]sulfonyl-2-(1-naphthylmethyl)propionyl]-(4-thiazolyl)alanyl}amino-5-cyclohexyl-1-morpholino-2,3-pentanediol] | 1.8 |
